Measurements as given in patent US10342766B2, “6-shogaol derivatives and activities thereof” (North Carolina Agricultural and Technical State University, priority 2017, dated 2019).
Where “and” joins values, the source holds several entries; their conditions need not be identical. Identical values can stand only once.

Experiments:
Nrf2 = Nrf2 reporter activity by Tg(gstp1:GFP) fluorescence in transgenic zebrafish embryos; assay type: in vivo; settings: 24-hour treatment from 1 dpf to 2 dpf; for Ratio/CTL, Tg(gstp1:GFP) fluorescence signal: 5 μM, olfactory epithelia, relative to vehicle (DMSO = 1.00)
Protocol: Zebrafish AB transgenic strains Tg(gstp1:GFP) were maintained in a Pentair Aquatic Ecosystem (Apopka, Fla., United States of America) fish housing unit with 14 h light/10 h dark cycle (see Tsujita, T., Li, L., Nakajima, H., Iwamoto, N., Nakajima-Takagi, Y., Ohashi, K., Kawakami, K., Kumagai, Y., Freeman, B. A., Yamamoto, M., and Kobayashi, M. (2011) “Nitro-fatty acids and cyclopentenone prostaglandins share strategies to activate the Keap1-Nrf2 system: a study using green fluorescent protein transgenic zebrafish.” Genes Cells 16, 46-57). The fish embryos were maintained at 28.5° C. in 0.3× Danieau's solution (19.3 mM NaCl, 0.23 mM KCl, 0.13 mM MgSO4, 0.2 mM Ca(NO3)2, 1.7 mM HEPES, pH 7.0) containing 30 μg/ml phenylthiourea (PTU) to inhibit pigmentation. Tg(gstp1:GFP) cross with AB wild-type strain fluorescence embryos were used for the experiment. Zebrafish embryos were washed, dechorionated and anaesthetized before observations, and fluorescence imaging for analysis.
Transgenic zebrafish embryos at 1 day-post-fertilization (dpf) were dechorionated and placed in Petri dishes containing different chemicals diluted in 0.3× Danieau's solution containing PTU. The chemical stock was dissolved in DMSO at 5 mM concentration.
An Olympus MVX10 Fluorescence Macroscope (Olympus, Center Valley, Pa., United States of America) equipped with a Hamamatsu C9300-221 high-speed digital CCD camera (Hamamatsu City, Japan) was used for fluorescence microscopy. Tg(gstp1:GFP) fluorescent embryos were anaesthetized in tricaine and imaged at 2 dpf. MetaMorph Basic software (Olympus, Center Valley, Pa., United States of America) was used for image acquisition and analysis.
Quantification of Nrf2 Reporter Activity by Tg(gstp1:
GFP) Fluoresence in Zebrafish Model. The fluorescence intensity of the olfactory neural epithelia was quantitated using MetaMorph Basic software. In brief, GFP expression in the olfactory regions of Tg(gstp1:GFP) embryos treated with various chemicals was measured after 24-hour treatment from 1 dpf to 2 dpf. The GFP induction was detectable by fluorescence signal at the area of the olfactory epithelia in the anterior of the head region, the intensity was measured using an area of a circle of 60 pixel diameter of the fluorescence olfactory epithelia subtracted by a background non-fluorescence area next to the zebrafish embryo. Both the left and right olfactory epithelia were measured to give an average fluorescence value. The values are an average of measurements from at least 10 embryos.

[1] = Biotransformation in zebrafish embryos (cysteine conjugates, LC/MS); assay type: in vivo; settings: 5 μM in incubation medium, 8 hpf to 24 hpf
Protocol: Fifty zebrafish embryos at the 8 hour-post-fertilization (hpf) stage were incubated at 28.5° C. in 0.3× Danieau's solution (19.3 mM NaCl, 0.23 mM KCl, 0.13 mM MgSO4, 0.2 mM Ca(NO3)2, 1.7 mM HEPES, pH 7.0) with or without 5 μM 18 and 25-27, respectively. At 24 hpf, embryos were dechorionated manually and the chorions were carefully removed one by one from the culture medium. The zebrafish embryos were harvested and kept at −80° C. till analyzed by LC/MS.
200 μL Sodium acetate buffer solution (pH 5.0) was added to 50 zebrafish embryos. Samples were homogenized for 90 s by an Omni Bead Ruptor Homogenizer (Kennesaw, Ga., United States of America). 10 μL 10% ascorbic acid and 300 μL sodium acetate buffer were added to the homogenates. The mixture was incubated in the presence of β-glucuronidase (250 U) and sulfatase (3 U) at 37° C. for 45 min, and then 600 μL MeOH with 1% acetic acid was added. The resulting mixture was vortexed for 30 s and then centrifuged at 17000 g for 10 min. The supernatant was removed and evaporated under a gentle stream of nitrogen. The residue was reconstituted in 150 μL 90% MeOH with 0.2% acetic acid (AA), and 10 μL was analyzed directly by LC/MS.
(§1) LC/MS analysis was carried out with a Thermo-Finnigan Spectra System, which consisted of an Accela high speed MS pump, an Accela refrigerated autosampler, and an LCQ Fleet ion trap mass detector (Thermo Electron, San Jose, Calif., United States of America) incorporated with an electrospray ionization (ESI) interface. A Gemini-NX C18 column (150 mm×4.6 mm i.d., 5 μm; Phenomenex, Torrance, Calif., United States of America) was used for separation at a flow rate of 0.3 mL/min. The column was eluted with 100% A (5% aqueous methanol with 0.2% formic acid) for 1 min, followed by linear increases in B (95% aqueous methanol with 0.2% formic acid) to 55% from 1 to 4 min, to 85% from 4 to 25 min, then to 100% B from 25 to 30 min, and then with 100% B from 30 to 35 min. The column was then re-equilibrated with 100% A for 5 min. The LC eluent was introduced into the ESI interface. The positive ion polarity mode was set for the ESI source with the voltage on the ESI interface maintained at approximately 4.6 kV. Nitrogen gas was used as the sheath gas and auxiliary gas. Optimized source parameters, including capillary temperature (260° C.), sheath gas flow rate (31 arbitrary units), auxiliary gas flow rate (16 units), tube lens (34 V), and capillary voltage 9 V, were tuned using authentic samples. The collision-induced dissociation (CID) was conducted with an isolation width 2 Da and normalized collision energy of 35 for MS^2. The mass range was measured from 100 to 800 m/z. Data acquisition was performed with Xcalibur version 2.0 (Thermo Electron, San Jose, Calif., United States of America).

[2] = Formation of cysteine conjugates in mice (urine, LC/MS); assay type: in vivo, mouse; settings: oral gavage 200 mg/kg, urine collected in 24 h
Protocol: as §1, with “Optimized source parameters, including capillary temperature (260° C.), sheath gas flow rate (31 arbitrary units), auxiliary gas flow rate (16 units), tube lens (34 V), and capillary voltage 9 V, were tuned using authentic samples. The collision-induced dissociation (CID) was conducted with an isolation width 2 Da and normalized collision energy of 35 for MS^2.” left out, “Data acquisition was performed with Xcalibur version 2.0 (Thermo Electron, San Jose, Calif., United States of America).” left out
Enzymatic deconjugation of mouse urine was performed as described previously with slight modifications. […] The resulting suspension was centrifuged at 17,000 g for 5 min, and 10 μL of supernatant was analyzed directly by LC/MS.

SMILES | Ratio/CTL, Tg(gstp1:GFP) fluorescence signal (Nrf2) | also measured
CCCCC[C@H](O)CC(=O)CCc1ccc(O)c(OC)c1 [Compound 11, [6]-gingerol, reference compound] | 1.87 and 1.87 ± 0.51 | –
CCCCCC(CC(=O)CCc1ccc(O)c(OC)c1)OC (centres unmarked) [Compound 10] | 0.96 ± 0.24 | –
CCCCCC(CC(=O)CCc1ccc(O)c(OC)c1)SCC(NC(C)=O)C(=O)O (centres unmarked) [Compound 7] | 1.04 ± 0.05 | –
CCCCC/C=C/C(=O)/C=C/c1ccccc1C(F)(F)F [Compound 24] | 1.55 and 1.55 ± 0.67 | –
CCCCC/C=C/C(=O)/C=C/c1cccc(C(F)(F)F)c1F [Compound 23] | 1.63 and 1.63 ± 0.17 | –
CCCCCC(CC(O)CCc1ccc(O)c(OC)c1)SCC(N)C(=O)O (centres unmarked) [Compound 15] | 1.08 ± 0.65 | –
CCCCCC(CC(O)CCc1ccc(O)c(OC)c1)SC (centres unmarked) [Compound 17] | 0.72 ± 0.14 | –
CCCCCC=CC(O)CCc1ccc(O)c(OC)c1 (centres unmarked) [Compound 4] | 1.13 and 1.13 ± 0.21 | –
CCCCCCC/C=C/C(=O)CCc1ccc(O)c(OC)c1 [Compound 2, reference compound] | 1.67 ± 0.55 | Ratio/CTL, Tg(gstp1:GFP) fluorescence signal (Nrf2; listed as 8S): 1.67
C[S+]([O-])CCCCN=C=S (centres unmarked) [SFN, sulforaphane, reference compound] | 2.03 and 2.03 ± 0.49 | –
CCCCCCCC(=O)CCc1ccc(O)c(OC)c1 [Compound 5] | 1.27 and 1.27 ± 0.29 | –
CCCCC/C=C/C(=O)/C=C/c1ccc(O)c(OC)c1 [Compound 18] | 5.67 and 5.67 ± 0.59 | Cysteine conjugates found in zebrafish embryos [1]: conjugate 35 was predominantly present; Cysteine conjugates found in mouse urine [2]: conjugate 35 was predominantly present
CCCCCCC[C@H](O)CC(=O)CCc1ccc(O)c(OC)c1 [Compound 12, reference compound] | 1.65 and 1.65 ± 0.29 | –
CCCCC/C=C/C(=O)/C=C/c1cc(OC)c(O)c(C(F)(F)F)c1 [Compound 21] | 2.18 and 2.18 ± 0.53 | –
CCCCC/C=C/C(=O)/C=C/c1cc(O)c(O)c(OC)c1 [Compound 20] | 1.26 and 1.26 ± 0.14 | –
CCCCCCCC(=O)CCc1ccc(O)c(O)c1 [Compound 25] | 4.32 and 4.32 ± 0.50 | Cysteine conjugates found in zebrafish embryos [1]: conjugates 37 and 37b were exclusively identified
CCCCCCCC(O)CCc1ccc(O)c(OC)c1 (centres unmarked) [Compound 14] | 0.96 ± 0.21 | Nrf2 activation in Tg(gstp1:GFP) zebrafish embryos, in words (Nrf2): no effect at all
CCCCCCCCC/C=C/C(=O)CCc1ccc(O)c(OC)c1 [Compound 3, reference compound] | 1.53 ± 0.53 | Ratio/CTL, Tg(gstp1:GFP) fluorescence signal (Nrf2; listed as 10S): 1.53
CCCCCC(CC(=O)CCc1ccc(O)c(OC)c1)SCC(N)C(=O)O (centres unmarked) [Compound 6] | 1.06 ± 0.20 | –
CCCCC/C=C/C(=O)CCc1ccc(O)c(OC)c1 [Compound 1, [6]-shogaol, reference compound] | 2.40 and 2.40 ± 0.54 | Ratio/CTL, Tg(gstp1:GFP) fluorescence signal (Nrf2; listed as 6S): 2.40
CCCCCCCCC[C@H](O)CC(=O)CCc1ccc(O)c(OC)c1 [Compound 13, reference compound] | 1.29 and 1.29 ± 0.40 | –
CCCCC/C=C/C(=O)/C=C/c1cccc(C(F)(F)F)c1 [Compound 22] | 1.28 and 1.28 ± 0.10 | –
CCCCCC(CC(=O)CCc1ccc(O)c(OC)c1)SC (centres unmarked) [Compound 8] | 1.16 ± 0.47 | –
CCCCCCCC(=O)/C=C/c1ccc(O)c(OC)c1 [Compound 19] | 3.29 and 3.29 ± 0.35 | –
CCCCCC(CC(O)CCc1ccc(O)c(OC)c1)SCC(NC(C)=O)C(=O)O (centres unmarked) [Compound 16] | 0.78 ± 0.12 | –
